Experimental data published in ChEMBL document CHEMBL1147581, “Development of novel lipid-peptide hybrid compounds with antibacterial activity from natural cationic antibacterial peptides” (Bioorg Med Chem Lett, 2004).
In brackets after ≈: the same amount, converted by molar mass. Activity calls are given as the source filed them. No cut-off for these calls is given here. Non-standard residues stand in square brackets, D forms with d. Residues, ends and D or L forms follow the SMILES beside them. *: point of attachment. Palmitoleoyl = CCCCCC/C=C\CCCCCCCC(=O)*; PhAc = O=C(Cc1ccccc1)*; Bz = O=C(c1ccccc1)*; Ahx = NCCCCCC(=O)O

Columns and labels:
Staphylococcus aureus = test: Minimum inhibitory concentration against Staphylococcus aureus ATCC 6538; assay type: functional
[1] = Stability of the peptide in the presence of mouse serum; assay type: ADME, organism-based
Escherichia coli [2] = test: Minimum inhibitory concentration against Escherichia coli ATCC 25922; NA = not active; assay type: functional, organism-based
Pseudomonas aeruginosa [3] = test: Minimum inhibitory concentration against Pseudomonas aeruginosa ATCC 9027; NA = not active; assay type: functional, organism-based
Mus musculus [4] = species: Mus musculus; test: Concentration required for half-maximal lysis of mouse erythrocytes; assay type: functional
[5] = Minimum inhibitory concentration against Micrococcus luteus ATCC 9341; assay type: functional
Candida albicans [6] = test: Minimum inhibitory concentration against Candida albicans ATCC 36232; NA = not active; assay type: functional, organism-based
Candida albicans [7] = test: Minimum inhibitory concentration against Candida albicans ATCC 36232; assay type: functional
Pseudomonas aeruginosa [8] = test: Minimum inhibitory concentration against Pseudomonas aeruginosa ATCC 9027; assay type: functional
Escherichia coli [9] = test: Minimum inhibitory concentration against Escherichia coli ATCC 25922; assay type: functional
Mus musculus [10] = species: Mus musculus; test: Concentration required for half-maximal lysis of mouse erythrocytes; NA = not active; assay type: functional, organism-based

Structure (SMILES)	MIC (Staphylococcus aureus)	half-life [1]	MIC (Escherichia coli [2])	MIC (Pseudomonas aeruginosa [3])	HD50 (Mus musculus [4])	MIC [5]	MIC (Candida albicans [6])	MIC (Candida albicans [7])	MIC (Pseudomonas aeruginosa [8])	MIC (Escherichia coli [9])	HD50 (Mus musculus [10])
CC[C@H](C)[C@H](NC(=O)[C@H](Cc1ccc(O)cc1)NC(=O)[C@H](CCCCN)NC(=O)[C@H](CCCCN)NC(C)=O)C(=O)N[C@@H](CCCCN)C(=O)N[C@H](C(=O)N[C@@H](Cc1ccccc1)C(=O)N[C@H](C(=O)N[C@@H](Cc1ccccc1)C(=O)N[C@@H](CCCCN)C(N)=O)C(C)C)C(C)C (Ac-KKYIKVFVFK-NH2)	100 µg/mL (≈ 74.6 µM)	30 min	–	–	–	–	–	–	–	–	–
CC(=O)N[C@@H](Cc1ccc(O)cc1)C(=O)N[C@@H](CS)C(=O)N[C@@H](CC(N)=O)C(=O)NCC(=O)N[C@@H](CCCCN)C(=O)N[C@@H](CCCN=C(N)N)C(=O)N[C@H](C(=O)N[C@@H](CS)C(=O)N[C@H](C(=O)N[C@@H](CS)C(=O)N[C@@H](CCCN=C(N)N)C(N)=O)C(C)C)C(C)C (Ac-YCNGKRVCVCR-NH2)	50 µg/mL (≈ 37.3 µM)	–	inactive	inactive	>100 µg/mL	100 µg/mL (≈ 74.5 µM)	inactive	–	–	–	–
CC[C@H](C)[C@H](NC(=O)[C@H](Cc1ccc(O)cc1)NC(=O)[C@H](CCCCN)NC(=O)[C@H](CCCCN)NC(=O)CCCCCNC(C)=O)C(=O)N[C@@H](CCCCN)C(=O)N[C@H](C(=O)N[C@@H](Cc1ccccc1)C(=O)N[C@H](C(=O)N[C@@H](Cc1ccccc1)C(=O)N[C@@H](CCCCN)C(N)=O)C(C)C)C(C)C (Ac-[Ahx]KKYIKVFVFK-NH2)	6.3 µg/mL (≈ 4.33 µM)	45 min	–	–	–	–	–	–	–	–	–
CC(=O)NCCCCCC(=O)N[C@@H](Cc1ccc(O)cc1)C(=O)N[C@@H](CS)C(=O)N[C@@H](CC(N)=O)C(=O)NCC(=O)N[C@@H](CCCCN)C(=O)N[C@@H](CCCN=C(N)N)C(=O)N[C@H](C(=O)N[C@@H](CS)C(=O)N[C@H](C(=O)N[C@@H](CS)C(=O)N[C@@H](CCCN=C(N)N)C(N)=O)C(C)C)C(C)C (Ac-[Ahx]YCNGKRVCVCR-NH2)	> 100 µg/mL	–	inactive	inactive	>100 µg/mL	> 100 µg/mL	inactive	–	–	–	–
CC[C@H](C)[C@H](NC(=O)[C@H](Cc1ccc(O)cc1)NC(=O)[C@H](CCCCN)NC(=O)[C@H](CCCCN)NC(=O)c1ccccc1)C(=O)N[C@@H](CCCCN)C(=O)N[C@H](C(=O)N[C@@H](Cc1ccccc1)C(=O)N[C@H](C(=O)N[C@@H](Cc1ccccc1)C(=O)N[C@@H](CCCCN)C(N)=O)C(C)C)C(C)C (Bz-KKYIKVFVFK-NH2) [listing 1 of 2 here]	–	30 min	–	–	–	–	–	–	–	–	–
CC[C@H](C)[C@H](NC(=O)[C@H](Cc1ccc(O)cc1)NC(=O)[C@H](CCCCN)NC(=O)[C@H](CCCCN)NC(=O)c1ccccc1)C(=O)N[C@@H](CCCCN)C(=O)N[C@H](C(=O)N[C@@H](Cc1ccccc1)C(=O)N[C@H](C(=O)N[C@@H](Cc1ccccc1)C(=O)N[C@@H](CCCCN)C(N)=O)C(C)C)C(C)C (Bz-KKYIKVFVFK-NH2) [listing 2 of 2 here]	50 µg/mL (≈ 35.6 µM)	–	–	–	–	–	–	–	–	–	–
CC(C)[C@H](NC(=O)[C@H](CS)NC(=O)[C@@H](NC(=O)[C@H](CCCN=C(N)N)NC(=O)[C@H](CCCCN)NC(=O)CNC(=O)[C@H](CC(N)=O)NC(=O)[C@H](CS)NC(=O)[C@H](Cc1ccc(O)cc1)NC(=O)[C@@H](N)Cc1ccccc1)C(C)C)C(=O)N[C@@H](CS)C(=O)N[C@@H](CCCN=C(N)N)C(N)=O (H-FYCNGKRVCVCR-NH2)	25 µg/mL (≈ 17.3 µM)	–	–	–	>100 µg/mL	12.5 µg/mL (≈ 8.64 µM)	–	25 µg/mL (≈ 17.3 µM)	25 µg/mL (≈ 17.3 µM)	25 µg/mL (≈ 17.3 µM)	–
CC(C)[C@H](NC(=O)[C@H](CS)NC(=O)[C@@H](NC(=O)[C@H](CCCN=C(N)N)NC(=O)[C@H](CCCCN)NC(=O)CNC(=O)[C@H](CC(N)=O)NC(=O)[C@H](CS)NC(=O)[C@H](Cc1ccc(O)cc1)NC(=O)[C@H](Cc1ccccc1)NC(=O)[C@@H](N)CCCCN)C(C)C)C(=O)N[C@@H](CS)C(=O)N[C@@H](CCCN=C(N)N)C(N)=O (H-KFYCNGKRVCVCR-NH2)	6.3 µg/mL (≈ 4 µM)	–	–	–	>100 µg/mL	6.3 µg/mL (≈ 4 µM)	–	12.5 µg/mL (≈ 7.94 µM)	50 µg/mL (≈ 31.7 µM)	25 µg/mL (≈ 15.9 µM)	–
CC(C)[C@H](NC(=O)[C@H](CS)NC(=O)[C@@H](NC(=O)[C@H](CCCN=C(N)N)NC(=O)[C@H](CCCCN)NC(=O)CNC(=O)[C@H](CC(N)=O)NC(=O)[C@H](CS)NC(=O)[C@H](Cc1ccc(O)cc1)NC(=O)[C@H](CCCCN)NC(=O)[C@@H](N)CCCCN)C(C)C)C(=O)N[C@@H](CS)C(=O)N[C@@H](CCCN=C(N)N)C(N)=O (H-KKYCNGKRVCVCR-NH2)	6.3 µg/mL (≈ 4.05 µM)	–	–	–	>100 µg/mL	6.3 µg/mL (≈ 4.05 µM)	–	12.5 µg/mL (≈ 8.03 µM)	25 µg/mL (≈ 16.1 µM)	25 µg/mL (≈ 16.1 µM)	–
CC[C@H](C)[C@H](NC(=O)[C@H](Cc1ccc(O)cc1)NC(=O)[C@H](CCCCN)NC(=O)[C@@H](N)CCCCN)C(=O)N[C@@H](CCCCN)C(=O)N[C@H](C(=O)N[C@@H](Cc1ccccc1)C(=O)N[C@H](C(=O)N[C@@H](Cc1ccccc1)C(=O)N[C@@H](CCCCN)C(N)=O)C(C)C)C(C)C (H-KKYIKVFVFK-NH2)	6.3 µg/mL (≈ 4.85 µM)	8 min	–	–	–	–	–	–	–	–	–
CC(C)[C@H](NC(=O)[C@H](CS)NC(=O)[C@@H](NC(=O)[C@H](CCCN=C(N)N)NC(=O)[C@H](CCCCN)NC(=O)CNC(=O)[C@H](CC(N)=O)NC(=O)[C@H](CS)NC(=O)[C@H](Cc1ccc(O)cc1)NC(=O)[C@@H](N)CCCCN)C(C)C)C(=O)N[C@@H](CS)C(=O)N[C@@H](CCCN=C(N)N)C(N)=O (H-KYCNGKRVCVCR-NH2)	12.5 µg/mL (≈ 8.75 µM)	–	–	–	>100 µg/mL	6.3 µg/mL (≈ 4.41 µM)	–	25 µg/mL (≈ 17.5 µM)	50 µg/mL (≈ 35 µM)	50 µg/mL (≈ 35 µM)	–
CC(C)[C@H](NC(=O)[C@H](CS)NC(=O)[C@@H](NC(=O)[C@H](CCCN=C(N)N)NC(=O)[C@H](CCCCN)NC(=O)CNC(=O)[C@H](CC(N)=O)NC(=O)[C@H](CS)NC(=O)[C@@H](N)Cc1ccc(O)cc1)C(C)C)C(=O)N[C@@H](CS)C(=O)N[C@@H](CCCN=C(N)N)C(N)=O (H-YCNGKRVCVCR-NH2)	25 µg/mL (≈ 19.2 µM)	–	–	–	>100 µg/mL	25 µg/mL (≈ 19.2 µM)	–	25 µg/mL (≈ 19.2 µM)	50 µg/mL (≈ 38.5 µM)	12.5 µg/mL (≈ 9.62 µM)	–
CC(C)[C@H](NC(=O)[C@H](CS)NC(=O)[C@@H](NC(=O)[C@H](CCCN=C(N)N)NC(=O)[C@H](CCCCN)NC(=O)CNC(=O)[C@H](CC(N)=O)NC(=O)[C@H](CS)NC(=O)[C@H](Cc1ccc(O)cc1)NC(=O)CCCCCN)C(C)C)C(=O)N[C@@H](CS)C(=O)N[C@@H](CCCN=C(N)N)C(N)=O (H-[Ahx]YCNGKRVCVCR-NH2)	50 µg/mL (≈ 35.4 µM)	–	inactive	inactive	>100 µg/mL	50 µg/mL (≈ 35.4 µM)	inactive	–	–	–	–
CCCCCC/C=C\CCCCCCCC(=O)N[C@@H](Cc1ccc(O)cc1)C(=O)N[C@@H](CS)C(=O)N[C@@H](CC(N)=O)C(=O)NCC(=O)N[C@@H](CCCCN)C(=O)N[C@@H](CCCN=C(N)N)C(=O)N[C@H](C(=O)N[C@@H](CS)C(=O)N[C@H](C(=O)N[C@@H](CS)C(=O)N[C@@H](CCCN=C(N)N)C(N)=O)C(C)C)C(C)C (Palmitoleoyl-YCNGKRVCVCR-NH2)	> 100 µg/mL	–	inactive	inactive	>100 µg/mL	> 100 µg/mL	inactive	–	–	–	–
CC(C)[C@H](NC(=O)[C@H](CS)NC(=O)[C@@H](NC(=O)[C@H](CCCN=C(N)N)NC(=O)[C@H](CCCCN)NC(=O)CNC(=O)[C@H](CC(N)=O)NC(=O)[C@H](CS)NC(=O)[C@H](Cc1ccc(O)cc1)NC(=O)Cc1ccccc1)C(C)C)C(=O)N[C@@H](CS)C(=O)N[C@@H](CCCN=C(N)N)C(N)=O (PhAc-YCNGKRVCVCR-NH2)	100 µg/mL (≈ 70.5 µM)	–	inactive	inactive	>100 µg/mL	> 100 µg/mL	inactive	–	–	–	–
CC[C@H](C)[C@H](NC(=O)CN)C(=O)NCC(=O)N[C@@H](C)C(=O)N[C@H](C(=O)N[C@@H](CC(C)C)C(=O)N[C@@H](CCCCN)C(=O)N[C@H](C(=O)N[C@@H](CC(C)C)C(=O)N[C@H](C(=O)N[C@H](C(=O)NCC(=O)N[C@@H](CC(C)C)C(=O)N1CCC[C@H]1C(=O)N[C@@H](C)C(=O)N[C@@H](CC(C)C)C(=O)N[C@H](C(=O)N[C@@H](CO)C(=O)N[C@@H](Cc1c[nH]c2ccccc12)C(=O)N[C@H](C(=O)N[C@@H](CCCCN)C(=O)N[C@@H](CCCNC(=N)N)C(=O)N[C@@H](CCCCN)C(=O)N[C@@H](CCCNC(=N)N)C(=O)N[C@@H](CCC(N)=O)C(=O)N[C@@H](CCC(N)=O)C(N)=O)[C@@H](C)CC)[C@@H](C)CC)[C@@H](C)O)[C@@H](C)O)C(C)C)C(C)C [MELITTIN]	–	–	–	–	–	0.78 µg/mL (≈ 0.274 µM)	–	1.56 µg/mL (≈ 0.548 µM)	–	–	inactive
